# Data taken from publication PMC8434392, “Harnessing the Anti-Nociceptive Potential of NK2 and NK3 Ligands in the Design of New Multifunctional μ/δ-Opioid Agonist–Neurokinin Antagonist Peptidomimetics” (Molecules, 2021).
# Where two headings read alike, the source gives them in different places. Numbered stars: 1 amine (or outer) side, 2 acyl side, 3 side chain; on linkers, the order of the positions; unused ones are H or OH. Square brackets hold non-standard residues; d marks the D form. Peptide text beside a SMILES is read from it. * marks the point of attachment. X3 = O=C(c1c(OCCN[*:1])c(-c2ccccc2)nc2ccccc12)[*:2]; X1 = O=C1[C@@H](N[*:1])Cc2ccccc2CN1CCC(=O)[*:2]; NH(1S-phenylpropyl) = CC[C@H](N*)c1ccccc1; Dmt = Cc1cc(O)cc(C)c1C[C@H](N)C(=O)O; 4Amb = NCc1ccc(C(=O)O)cc1; Ac5c = NC1(C(=O)O)CCCC1; X2 = C(CN*)CN1CCOCC1
# What was measured:
# [1] = target: T1, human recombinant DOR (Homo sapiens, UniProt P41143); test: Calcium mobilization assay, CHO DOR cells with GαqG66Di5; type: cell-based; settings: for DOR EC50 ± SEM (nM) / decreased potency at DOR compared to reference DPDPE / EC50: calcium mobilization; for DOR EC50 ± SEM (nM) / EC50: CHO DOR GαqG66Di5, maximum tested concentration 10 µM; for DOR α ± SEM: intrinsic activity: Emax of ligand / Emax of DPDPE; for EC50: read-out: DOR EC50 ± SEM
# T1 construct: expressed in transfected cells; host or cells: CHO cells (gift from Prof. Girolamo Calo', Ferrara University)
# [2] = target: T1, human recombinant DOR; test: Opioid receptor radioligand binding assay, DOR
# [3] = target: T2, human recombinant MOR (Homo sapiens, UniProt P35372); test: Opioid receptor radioligand binding assay, MOR
# T2 construct: expressed in transfected cells; host or cells: CHO cells (gift from Prof. Girolamo Calo', Ferrara University)
# [4] = target: T3, human recombinant KOR (Homo sapiens, UniProt P41145); test: Calcium mobilization assay, CHO KOR cells with Gαqi5; type: cell-based; settings: for KOR α ± SEM: intrinsic activity: Emax of ligand / Emax of dynorphin A
# T3 construct: expressed in transfected cells; host or cells: CHO cells (gift from Prof. Girolamo Calo', Ferrara University)
# [5] = target: T2, human recombinant MOR; test: Calcium mobilization assay, CHO MOR cells with Gαqi5; type: cell-based; settings: for EC50 / reduction in potency at MOR compared to dermorphin / reduction in potency at MOR compared to opioid parent pharmacophore KGOP01: calcium mobilization; for EC50: CHO MOR Gαqi5, maximum tested concentration 10 µM, read-out: MOR EC50 ± SEM; for MOR α ± SEM: intrinsic activity: Emax of ligand / Emax of dermorphin
# [6] = target: T3, human recombinant KOR; test: Opioid receptor radioligand binding assay, KOR
# [7] = target: T4, NK2 (h) (Homo sapiens, UniProt P21452); test: NK2 radioligand binding assay (Eurofins)
# T4 construct: host or cells: CHO cells
# T4 sequence (P21452 1-398): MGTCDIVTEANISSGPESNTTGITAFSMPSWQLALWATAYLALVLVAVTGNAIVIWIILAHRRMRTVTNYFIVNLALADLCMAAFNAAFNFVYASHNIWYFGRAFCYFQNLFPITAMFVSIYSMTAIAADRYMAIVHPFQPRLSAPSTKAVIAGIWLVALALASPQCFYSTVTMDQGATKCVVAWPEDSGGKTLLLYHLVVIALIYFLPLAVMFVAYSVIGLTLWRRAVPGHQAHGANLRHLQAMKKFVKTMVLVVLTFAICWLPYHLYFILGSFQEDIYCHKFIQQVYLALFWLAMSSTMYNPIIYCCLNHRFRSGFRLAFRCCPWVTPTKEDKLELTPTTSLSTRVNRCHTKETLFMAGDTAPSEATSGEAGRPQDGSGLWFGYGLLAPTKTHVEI
# [8] = target: T5, NK3 (h) (Homo sapiens, UniProt P29371); test: NK3 radioligand binding assay (Eurofins)
# T5 construct: host or cells: CHO cells
# T5 sequence (P29371 1-465): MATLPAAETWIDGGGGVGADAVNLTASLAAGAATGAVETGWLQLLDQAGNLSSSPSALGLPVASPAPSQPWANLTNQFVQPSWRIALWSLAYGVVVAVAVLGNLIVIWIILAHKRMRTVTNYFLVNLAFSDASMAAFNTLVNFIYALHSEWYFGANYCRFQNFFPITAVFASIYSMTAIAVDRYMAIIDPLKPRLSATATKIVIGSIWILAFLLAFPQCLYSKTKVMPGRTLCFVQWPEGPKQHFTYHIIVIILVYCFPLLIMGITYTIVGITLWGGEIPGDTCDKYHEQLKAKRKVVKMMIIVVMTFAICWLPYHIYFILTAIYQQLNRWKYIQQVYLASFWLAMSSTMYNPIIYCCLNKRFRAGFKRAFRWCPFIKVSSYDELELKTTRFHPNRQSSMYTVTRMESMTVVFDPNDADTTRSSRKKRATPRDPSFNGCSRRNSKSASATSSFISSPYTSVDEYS
# [9] = [3H][Ile5,6]deltorphin-2 displacement, CHO cell membranes, human recombinant receptor
# [10] = [3H]DAMGO displacement, CHO cell membranes, human recombinant receptor
# [11] = calcium mobilization, CHO KOR Gαqi5, maximum tested concentration 10 µM, crc = concentration-response curve
# [12] = [125I]NKA 0.1 nM, human recombinant (CHO cells), 60 min RT, n.c. = less than 25% inhibitory binding at highest validated test concentrations, read-out: IC50 [nM] ± SEM, NK2 receptor
# [13] = [125I]NKA 0.1 nM, human recombinant (CHO cells), Cheng Prusoff, n.c. = not calculated, read-out: Ki [nM] ± SEM, NK2 receptor
# T2 sequence (P35372 whole entry): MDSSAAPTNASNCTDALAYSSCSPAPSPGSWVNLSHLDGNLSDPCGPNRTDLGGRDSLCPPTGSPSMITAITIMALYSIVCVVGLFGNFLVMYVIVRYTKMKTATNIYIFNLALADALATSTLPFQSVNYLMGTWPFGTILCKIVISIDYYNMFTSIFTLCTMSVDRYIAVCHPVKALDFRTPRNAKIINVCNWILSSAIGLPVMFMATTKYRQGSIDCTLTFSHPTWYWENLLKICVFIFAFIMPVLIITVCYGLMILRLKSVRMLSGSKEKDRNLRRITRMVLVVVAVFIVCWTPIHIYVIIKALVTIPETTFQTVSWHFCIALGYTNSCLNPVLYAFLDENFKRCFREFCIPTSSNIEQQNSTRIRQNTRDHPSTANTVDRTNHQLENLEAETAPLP
# T1 sequence (P41143 whole entry): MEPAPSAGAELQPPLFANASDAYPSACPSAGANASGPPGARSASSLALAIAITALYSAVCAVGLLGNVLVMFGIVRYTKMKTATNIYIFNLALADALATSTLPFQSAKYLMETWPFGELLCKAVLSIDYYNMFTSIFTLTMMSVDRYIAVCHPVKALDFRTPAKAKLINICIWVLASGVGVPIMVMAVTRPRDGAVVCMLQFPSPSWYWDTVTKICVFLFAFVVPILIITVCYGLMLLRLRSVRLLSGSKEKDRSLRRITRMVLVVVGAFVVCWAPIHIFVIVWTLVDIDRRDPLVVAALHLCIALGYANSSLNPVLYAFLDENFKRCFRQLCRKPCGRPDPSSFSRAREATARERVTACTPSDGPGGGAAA
# T3 sequence (P41145 whole entry): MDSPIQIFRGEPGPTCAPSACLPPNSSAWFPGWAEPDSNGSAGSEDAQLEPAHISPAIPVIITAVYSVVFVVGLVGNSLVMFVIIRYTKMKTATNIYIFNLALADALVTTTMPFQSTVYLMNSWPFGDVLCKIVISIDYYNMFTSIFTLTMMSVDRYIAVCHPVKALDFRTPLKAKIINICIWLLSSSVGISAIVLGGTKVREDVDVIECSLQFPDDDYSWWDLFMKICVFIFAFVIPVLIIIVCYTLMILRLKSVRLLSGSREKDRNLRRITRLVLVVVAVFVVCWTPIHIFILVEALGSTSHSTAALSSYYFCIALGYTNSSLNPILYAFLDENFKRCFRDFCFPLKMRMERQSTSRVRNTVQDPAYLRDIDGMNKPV
SMILES,DOR EC50 ± SEM (nM) [1],DOR α ± SEM [1],Ki [2] [nM],"Ki [nM] ± SEM DOR [2, 9]",Ki [3] [nM],"KOR EC50 ± SEM (nM) [4, 11]",KOR α ± SEM [4],EC50 [5] [nM],MOR α ± SEM [5],Ki [6] [nM],decreased potency at DOR compared to reference DPDPE [1],EC50 [1] [nM],other results
Cc1cc(O)cc(C)c1C[C@H](N)C(=O)N[C@H](CCCNC(=N)N)C(=O)N[C@@H](Cc1ccccc1)C(=O)N[C@@H](CCCCN)C(=O)NCc1ccc(C(=O)NC2(C(=O)N[C@H](Cc3ccccc3)C(=O)NCCCN3CCOCC3)CCCC2)cc1 [SBL-OPNK-6] (H-[Dmt][dR]FK[4Amb][Ac5c][dF]-X2),inactive,inactive,22400,did not bind efficiently,74.93 ± 0.15,crc incomplete,crc incomplete,988 ± 82,0.67 ± 0.05,100 ± 1.16,–,–,"Ki [nM] ± SEM MOR [3, 10]: Weak binding"
Cc1cc(O)cc(C)c1C[C@H](N)C(=O)N[C@H](CCCNC(=N)N)C(=O)N[C@@H](Cc1ccccc1)C(=O)N[C@@H](CCCCN)C(=O)N[C@@H](CC(=O)O)C(=O)N[C@@H](Cc1ccc(O)cc1)C(=O)N[C@H](Cc1c[nH]c2ccccc12)C(=O)N[C@H](C(=O)N[C@H](Cc1c[nH]c2ccccc12)C(=O)N[C@H](Cc1c[nH]c2ccccc12)C(=O)N[C@@H](CCCCN)C(N)=O)C(C)C [SBL-OPNK-4] (H-[Dmt][dR]FKDY[dW]V[dW][dW]K-NH2),inactive,inactive,1250,did not bind efficiently,1.02 ± 0.03,crc incomplete,crc incomplete,815 ± 145,0.74 ± 0.05,90.5 ± 5.69,–,–,–
Cc1cc(O)cc(C)c1C[C@H](N)C(=O)N[C@H](CCCNC(=N)N)C(=O)N[C@H]1Cc2ccccc2CN(CCC(=O)NCc2ccc(C(=O)NC3(C(=O)N[C@H](Cc4ccccc4)C(=O)NCCCN4CCOCC4)CCCC3)cc2)C1=O [SBL-OPNK-7] (H-[Dmt][dR][X1][4Amb][Ac5c][dF]-X2),–,1.02 ± 0.02,–,–,–,completely inactive,inactive,13.1 ± 1.84,0.89 ± 0.04,–,2–3 fold,66.5 ± 11.7,"Ki ([2]; [3H][Ile5,6]deltorphin-2 displacement, CHO cell membranes, human recombinant receptor, read-out: Ki [nM] ± SEM DOR): 3.26 ± 0.09 nM; Ki ([3]; [3H]DAMGO displacement, CHO cell membranes, human recombinant receptor, read-out: Ki [nM] ± SEM MOR): 2.83 ± 0.02 nM; IC50 [7, 12]: 0.63 ± 0.22 nM; Ki [7, 13]: 0.34 ± 0.24 nM; reduction in potency at MOR compared to dermorphin [5]: 3 fold; reduction in potency at MOR compared to opioid parent pharmacophore KGOP01 [5]: 24 fold; Ki ([6]; [3H]nor-BNI displacement, CHO cell membranes, human recombinant receptor, read-out: Ki [nM] ± SEM KOR): 53 ± 3.2 nM"
"Cc1cc(O)cc(C)c1C[C@H](N)C(=O)N[C@H](CCCNC(=N)N)C(=O)N[C@H]1Cc2ccccc2CN(CCC(N)=O)C1=O [KGOP01, H-Dmt-D-Arg-Aba-βAla-NH2, reference compound]",–,–,4.88 ± 0.11,–,–,crc incomplete,–,0.54 ± 0.06,–,72.7 ± 4.32,–,75.6 ± 13.1,–
CC[C@H](NC(=O)c1c(OCCNC(=O)[C@H](CCCCN)NC(=O)[C@H](Cc2ccccc2)NC(=O)[C@@H](CCCNC(=N)N)NC(=O)[C@@H](N)Cc2c(C)cc(O)cc2C)c(-c2ccccc2)nc2ccccc12)c1ccccc1 [SBL-OPNK-8] (H-[Dmt][dR]FK[X3]-{NH(1S-phenylpropyl)}),inactive,inactive,4570,did not bind efficiently,120 ± 5.25,crc incomplete,crc incomplete,916 ± 106,0.65 ± 0.02,104 ± 6.12,–,–,"Ki [nM] ± SEM MOR [3, 10]: Weak binding"
CC[C@H](NC(=O)c1c(OCCNC(C)=O)c(-c2ccccc2)nc2ccccc12)c1ccccc1 [SBL-OPNK-3],–,–,–,–,–,–,–,–,–,–,–,–,"IC50 ([8]; [3H]SR 142801 0.4 nM, human recombinant (CHO cells), 120 min RT, read-out: IC50 [nM] ± SEM, NK3 receptor): 20.3 ± 7.2 nM; Ki ([8]; [3H]SR 142801 0.4 nM, human recombinant (CHO cells), Cheng Prusoff, read-out: Ki [nM] ± SEM, NK3 receptor): 11 ± 7.8 nM"
CC[C@H](NC(=O)c1c(OCCNC(=O)CCN2Cc3ccccc3C[C@H](NC(=O)[C@@H](CCCNC(=N)N)NC(=O)[C@@H](N)Cc3c(C)cc(O)cc3C)C2=O)c(-c2ccccc2)nc2ccccc12)c1ccccc1 [SBL-OPNK-9],–,1.02 ± 0.03,6.57 ± 4.02,–,5.43 ± 0.08,crc incomplete,crc incomplete,31.3 ± 7.39,0.83 ± 0.05,97.1 ± 4.72,2–3 fold,84.1 ± 18,IC50 [8]: 6.7 ± 2.4 nM; Ki [8]: 3.6 ± 2.5 nM; increase of NK3 affinity and potency compared to reference SB 222200 [8]: 1.5 fold
CC(=O)N[C@@H](CC(=O)O)C(=O)N[C@@H](Cc1ccc(O)cc1)C(=O)N[C@H](Cc1c[nH]c2ccccc12)C(=O)N[C@H](C(=O)N[C@H](Cc1c[nH]c2ccccc12)C(=O)N[C@H](Cc1c[nH]c2ccccc12)C(=O)N[C@@H](CCCCN)C(N)=O)C(C)C [SBL-OPNK-1] (Ac-DY[dW]V[dW][dW]K-NH2),–,–,–,–,–,–,–,–,–,–,–,–,"IC50 [7, 12]: 33.6 ± 11.9 nM; Ki [7, 13]: 18.3 ± 13 nM; lower NK2 binding affinity compared to the reference compound ([7]; reference [Nle10]-NKA(4-10)): about 17 fold"
Cc1cc(O)cc(C)c1C[C@H](N)C(=O)N[C@H](CCCNC(=N)N)C(=O)N[C@H]1Cc2ccccc2CN(CCC(=O)N[C@@H](CC(=O)O)C(=O)N[C@@H](Cc2ccc(O)cc2)C(=O)N[C@H](Cc2c[nH]c3ccccc23)C(=O)N[C@H](C(=O)N[C@H](Cc2c[nH]c3ccccc23)C(=O)N[C@H](Cc2c[nH]c3ccccc23)C(=O)N[C@@H](CCCCN)C(N)=O)C(C)C)C1=O [SBL-OPNK-5] (H-[Dmt][dR][X1]DY[dW]V[dW][dW]K-NH2),–,1.01 ± 0.03,10 ± 3.2,–,2.11 ± 0.04,–,0.44 ± 0.06,10.2 ± 0.67,0.91 ± 0.04,90.7 ± 0.94,2–3 fold,118 ± 26,"IC50 [7]: 3 ± 1 nM; Ki [7]: 1.6 ± 1.1 nM; EC50 ([4]; calcium mobilization, CHO KOR Gαqi5, maximum tested concentration 10 µM, crc = concentration-response curve, read-out: KOR EC50 ± SEM): 415 ± 133 nM; reduction in potency at MOR compared to dermorphin [5]: 2 fold; reduction in potency at MOR compared to opioid parent pharmacophore KGOP01 [5]: 18 fold"
"CC1(C)SSC(C)(C)[C@@H](NC(=O)[C@@H](N)Cc2ccc(O)cc2)C(=O)NCC(=O)N[C@@H](Cc2ccccc2)C(=O)N[C@H]1C(=O)O [DPDPE, reference compound]",–,–,–,–,–,inactive,inactive,–,–,–,–,–,–
